Reference: ChEMBL document CHEMBL5360663, “Discovery of a Novel Photocaged PI3K Inhibitor Capable of Real-Time Reporting of Drug Release” (ACS Med Chem Lett, 2023)
Active and inactive are the calls of the source. No cut-off for these calls is given here.

Legend:
[1] = target: Phosphatidylinositol 4,5-bisphosphate 3-kinase catalytic subunit alpha isoform (Homo sapiens, UniProt P42336); test: Inhibition of PI3Kalpha (unknown origin) using PIP2 as substrate in presence of ATP by Kinase-Glo assay
HGC-27 [2] = test: Antiproliferative activity against human HGC-27 cells assessed as inhibition of cell growth measured after 72 hrs by CTG assay; type: functional, cell-based; conditions: HGC-27, 72 h
[3] = Antiproliferative activity against human U373 cells assessed as inhibition of cell growth measured after 72 hrs by CTG assay; type: functional, cell-based; conditions: U373 MG
U-87 MG [4] = test: Antiproliferative activity against human U-87 MG cells assessed as inhibition of cell growth measured after 72 hrs by CTG assay; type: functional, cell-based, U-87MG ATCC
MCF7 [5] = test: Antiproliferative activity against human MCF7 cells assessed as inhibition of cell growth measured after 72 hrs by CTG assay; type: functional, cell-based; conditions: MCF7, 72 h
SK-MEL-2 [6] = test: Antiproliferative activity against human SK-MEL-2 cells assessed as inhibition of cell growth measured after 72 hrs by CTG assay; type: functional, cell-based; conditions: SK-MEL-2, 72 h
SK-MEL-5 [7] = test: Antiproliferative activity against human SK-MEL-5 cells assessed as inhibition of cell growth measured after 72 hrs by CTG assay; type: functional, cell-based; conditions: SK-MEL-5, 72 h
HGC-27 [8] = test: Antiproliferative activity against human HGC-27 cells assessed as inhibition of cell growth pre-treated with compound followed by UV irradiation for 5 mins measured after 72 hrs by CTG assay; type: functional, cell-based; conditions: HGC-27, light or radiation study
[9] = Antiproliferative activity against human U373 cells assessed as inhibition of cell growth pre-treated with compound followed by UV irradiation for 5 mins measured after 72 hrs by CTG assay; type: functional, cell-based; conditions: U373 MG, light or radiation study
U-87 MG [10] = test: Antiproliferative activity against human U-87 MG cells assessed as inhibition of cell growth pre-treated with compound followed by UV irradiation for 5 mins measured after 72 hrs by CTG assay; type: functional, cell-based, U-87MG ATCC; conditions: light or radiation study
MCF7 [11] = test: Antiproliferative activity against human MCF7 cells assessed as inhibition of cell growth pre-treated with compound followed by UV irradiation for 5 mins measured after 72 hrs by CTG assay; type: functional, cell-based; conditions: MCF7, light or radiation study
SK-MEL-2 [12] = test: Antiproliferative activity against human SK-MEL-2 cells assessed as inhibition of cell growth pre-treated with compound followed by UV irradiation for 5 mins measured after 72 hrs by CTG assay; type: functional, cell-based; conditions: SK-MEL-2, light or radiation study
SK-MEL-5 [13] = test: Antiproliferative activity against human SK-MEL-5 cells assessed as inhibition of cell growth pre-treated with compound followed by UV irradiation for 5 mins measured after 72 hrs by CTG assay; type: functional, cell-based; conditions: SK-MEL-5, light or radiation study
[14] = Selectivity ratio of IC50 for antiproliferative activity against human HGC-27 cells to IC50 for antiproliferative activity against human HGC-27 cells in presence of UV irradiation; type: functional
[15] = Selectivity ratio of IC50 for antiproliferative activity against human U373 cells to IC50 for antiproliferative activity against human U373 cells in presence of UV irradiation; type: functional
[16] = Selectivity ratio of IC50 for antiproliferative activity against human U-87 MG cells to IC50 for antiproliferative activity against human U-87 MG cells in presence of UV irradiation; type: functional, U-87MG ATCC
[17] = Selectivity ratio of IC50 for antiproliferative activity against human MCF7 cells to IC50 for antiproliferative activity against human MCF7 cells in presence of UV irradiation; type: toxicity, cell-based; conditions: read-out: Ratio IC50
[18] = Selectivity ratio of IC50 for antiproliferative activity against human SK-MEL-2 cells to IC50 for antiproliferative activity against human SK-MEL-2 cells in presence of UV irradiation; type: functional
[19] = Selectivity ratio of IC50 for antiproliferative activity against human SK-MEL-5 cells to IC50 for antiproliferative activity against human SK-MEL-5 cells in presence of UV irradiation; type: functional
HGC-27 [20] = test: Inhibition of PI3K in human HGC-27 cells assessed as reduction in AKT phosphorylation at S473 residue at 10 nM pre-treated with compound followed by UV irradiation for 5 mins measured after 24 hrs by Western blotting analysis; type: cell-based; conditions: time 1445.0 min
HGC-27 [21] = test: Inhibition of PI3K in human HGC-27 cells assessed as reduction in S6RP phosphorylation at S240 and 244 residue at 10 nM pre-treated with compound followed by UV irradiation for 5 mins measured after 24 hrs by Western blotting analysis; type: cell-based; conditions: time 1445.0 min
HGC-27 [22] = test: Inhibition of colony formation in human HGC-27 cells at 10 nM pre-treated with compound followed by UV irradiation for 5 mins measured after 3 days by crystal violet staining based analysis; type: functional, cell-based; conditions: time 4325.0 min
HGC-27 [23] = test: Photorelease activity in human HGC-27 cells assessed as release of 7-hydroxy-3-(hydroxymethyl)-2H-chromen-2-one incubated for 2 hrs in presence of UV irradiation by confocal microscopic analysis; type: ADME, cell-based; conditions: hgc-27, 2 h, dose 1-10 µM
HGC-27 [24] = test: Photorelease activity in human HGC-27 cells assessed as release of 7-hydroxy-3-(hydroxymethyl)-2H-chromen-2-one incubated for 2 hrs by confocal microscopic analysis; type: ADME, cell-based; conditions: hgc-27, 2 h
HGC-27 [25] = test: Photorelease activity in human HGC-27 cells assessed as increase in intracellular fluorescence intensity at 0.4 to 10 uM incubated for 2 hrs in presence of UV irradiation for 5 to 30 mins by fluorescence based microplate reader analysis; type: ADME, cell-based; conditions: hgc-27, 2 h, TDE = time-dependent effect, dose 0.4-10 µM
HGC-27 [26] = test: Photorelease activity in human HGC-27 cells assessed as increase in intracellular fluorescence intensity incubated for 2 hrs in presence of UV irradiation for 5 to 30 mins by fluorescence based microplate reader analysis; type: ADME, cell-based; conditions: hgc-27, 2 h, dose 0.4-10 µM

Chain of Phosphatidylinositol 4,5-bisphosphate 3-kinase catalytic subunit alpha isoform (P42336 whole entry, canonical isoform): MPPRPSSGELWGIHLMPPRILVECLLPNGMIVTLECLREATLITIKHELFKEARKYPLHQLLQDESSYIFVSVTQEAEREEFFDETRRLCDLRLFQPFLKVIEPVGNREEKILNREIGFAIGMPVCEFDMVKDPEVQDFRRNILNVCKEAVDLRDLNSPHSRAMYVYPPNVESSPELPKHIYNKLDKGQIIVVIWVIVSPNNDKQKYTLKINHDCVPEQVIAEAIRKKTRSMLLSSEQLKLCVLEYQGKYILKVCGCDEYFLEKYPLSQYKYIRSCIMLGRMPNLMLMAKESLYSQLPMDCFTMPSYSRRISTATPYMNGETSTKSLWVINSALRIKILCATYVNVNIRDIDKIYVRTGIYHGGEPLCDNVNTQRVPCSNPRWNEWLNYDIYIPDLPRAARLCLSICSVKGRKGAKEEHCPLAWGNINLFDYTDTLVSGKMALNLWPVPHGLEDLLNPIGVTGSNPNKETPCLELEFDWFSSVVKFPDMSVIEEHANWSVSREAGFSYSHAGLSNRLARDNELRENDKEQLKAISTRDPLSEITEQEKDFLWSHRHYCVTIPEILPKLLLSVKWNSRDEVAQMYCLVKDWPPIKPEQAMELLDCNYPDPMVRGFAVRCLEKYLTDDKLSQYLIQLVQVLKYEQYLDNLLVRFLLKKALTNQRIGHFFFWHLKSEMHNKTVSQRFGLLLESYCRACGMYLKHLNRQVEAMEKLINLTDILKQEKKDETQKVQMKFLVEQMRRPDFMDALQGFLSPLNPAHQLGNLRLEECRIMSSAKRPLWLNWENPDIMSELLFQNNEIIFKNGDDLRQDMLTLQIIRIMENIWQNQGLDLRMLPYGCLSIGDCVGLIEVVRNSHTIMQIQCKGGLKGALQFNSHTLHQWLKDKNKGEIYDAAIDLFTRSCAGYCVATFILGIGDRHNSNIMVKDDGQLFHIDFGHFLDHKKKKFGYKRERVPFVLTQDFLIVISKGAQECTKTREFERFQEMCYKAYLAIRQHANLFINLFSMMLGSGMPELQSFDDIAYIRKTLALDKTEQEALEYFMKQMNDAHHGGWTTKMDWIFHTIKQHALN

Row | IC50 [1] [nM] | IC50 (U-87 MG [4]) [nM] | IC50 (MCF7 [5]) [nM] | IC50 (SK-MEL-2 [6]) [nM] | IC50 (SK-MEL-5 [7]) [nM] | Structure (SMILES) | IC50 (HGC-27 [2]) [nM] | IC50 [3] [nM] | inhibition (HGC-27 [20]) | inhibition (HGC-27 [21]) | Activity (HGC-27 [22]) | also measured
1 | 18.9 | 3260 | > 10000 | 2810 | 6560 | COc1cc(COc2ccc3cc(CN(c4cc(-c5cc(OC6CCOCC6)c6ncnc(C)c6c5)cnc4OC)S(=O)(=O)c4ccc(F)cc4F)c(=O)oc3c2)c([N+](=O)[O-])cc1OC | 701 | > 10000 | Active | Active | Active | IC50 (HGC-27 [8]): 3.7 nM; IC50 [9]: 46 nM; IC50 (U-87 MG [10]): 52 nM; IC50 (MCF7 [11]): 428 nM; IC50 (SK-MEL-2 [12]): 143 nM; IC50 (SK-MEL-5 [13]): 434 nM; Ratio IC50 [14]: 189; Ratio IC50 [15]: >217; Ratio IC50 [16]: 63; selectivity ratio [17]: > 23; Ratio IC50 [18]: 20; Ratio IC50 [19]: 15; Activity (HGC-27 [23]): Dose-Dependent Effect; Activity (HGC-27 [24]): Not Active; Activity (HGC-27 [25]): Tde; Activity (HGC-27 [26]): Dose-Dependent Effect
2 | 0.17 | 50 | 282 | 190 | 65 | COc1ncc(-c2cc(OC3CCOCC3)c3ncnc(C)c3c2)cc1NS(=O)(=O)c1ccc(F)cc1F | 1.8 | 57 | Active | Active | Active | 
3 | 2.07 | 11 | 295 | 130 | 190 | COc1ncc(-c2cc(OC3CCOCC3)c3ncnc(C)c3c2)cc1N(Cc1cc2ccc(O)cc2oc1=O)S(=O)(=O)c1ccc(F)cc1F | 3.9 | 25 | Active | Active | Active | 
